Reference: publication PMC6415263, “Proteins as Nano-Carriers for Bioactive Compounds. The Case of 7S and 11S Soy Globulins and Folic Acid Complexation” (Polymers, 2018)

Assays:
[1] = target: T1, 7S globulin (β-conglycinin); test: intrinsic fluorescence quenching, modified double logarithm model; format: binding, Glycine max; settings: Trizma buffer pH 7.0, I = 0.05 M, 25 °C; excitation 280 nm; protein 5 μM, FA 0-20 μM (methods section prints mM)
T1 construct: gene CG-1; native 7S fraction from defatted soybean flour (Nagano method), lyophilized; mixed trimers of alpha, alpha' and beta; 150-200 kDa; minor gamma-conglycinin
Source text: intrinsic fluorescence quenching, modified double logarithm model on 7S globulin (β-conglycinin)

[2] = target: T2, 11S globulin (glycinin); test: as above; format: binding, Glycine max; settings: Trizma buffer pH 7.0, I = 0.05 M, 25 °C; excitation 280 nm; protein 5 μM, FA 0-20 μM (methods section prints mM)
T2 construct: gene GY1; native 11S fraction from defatted soybean flour (Nagano method), lyophilized; hexamer of non-identical subunits, each acidic A and basic B polypeptide joined by disulfide; 300-380 kDa
Source text: intrinsic fluorescence quenching, modified double logarithm model on 11S globulin (glycinin)

Parameters derived from modified double logarithm model / Ka [M^-1] [1]: 4.00 × 10^4
Parameters derived from modified double logarithm model / Ka [M^-1] [2]: 4.36 × 10^4
Compound: Nc1nc2ncc(CNc3ccc(C(=O)N[C@@H](CCC(=O)O)C(=O)O)cc3)nc2c(=O)[nH]1 [folic acid]
